In patent US9927437B2, “Treating neurodegenerative disease” (THE BRIGHAM AND WOMEN'S HOSPITAL, INC., priority 2013, dated 2018):
“Also recorded” adds a separate entry of the source.

Columns and labels:
[1] = system: inflammatory monocytes; test: Recruitment of inflammatory monocytes to the CNS of EAE NOD mice (flow cytometry); format: in vivo, mouse; settings: daily Miglustat from onset of progressive phase
[2] = system: primary astrocytes; test: Activation of cultured primary astrocytes, mRNA expression; format: cell-based, mouse; settings: primary mouse astrocytes activated with LPS/IFNγ; Miglustat
Description: FIGS. 3a-m. LacCer produced by B4GALT6 acts in an autocrine manner to boost astrocyte activation. Cultured astrocytes were pre-treated for 1 h with PDMP (25 μM), LacCer (10 μM), both (LacCer+PDMP), or vehicle (vehicle), followed by activation with lipopolysaccharide (100 ng/ml) and Interferon-γ (100 Units/ml) (LPS/IFNγ) or left un-treated (control). (a) Heatmap depicting mRNA expression, as detected by Nanostring nCounter analysis, in astrocytes stimulated with LPS/IFNγ. Representative data of three independent experiments. (b) Histogram presentation of the normalized gene expression presented in (a), statistical analysis by one-way ANOVA followed by Tukey post-hoc analysis. (c-i) The expression of B4galt5 (shB4galt5), B4galt6 (shB4galt6) or non-targeting shRNA (ShControl) in C8-D30 astrocytes was knocked-down using verified shRNA (n≥4). (c) qRT analysis of B4galt5 and B4galt6 mRNA expression. (d-f) astrocytes were activated as in (a) and mRNA expression for (d) H2-Aa, (e) Ccl5 and (f) Cxcl10 was determined; expression is presented relative to house keeping gene (Gapdh) (n≥4). (g) Schematic map of the astrocyte-specific shRNA lentiviral vector. […] NOD mice were injected i.c.v. with 1×10^7 IU of shControl, shB4galt5 or shB4galt6 lentivirus, at day 35 after EAE induction (progressive phase). n=10 mice per group (h, i) 10 days after i.c.v. injection experiment was terminated and (h) b4galt5 and b4galt6 expression levels were determined by qPCR in astrocytes isolated from naïve or EAE NOD mice; expression normalized to gapdh and presented relative to that of cells from naïve mice. Representative data of two independent experiments, Statistical analysis by one-way ANOVA, followed by Tukey post-hoc analysis. (i) LacCer levels were quantified of in the CNS of naïve or EAE NOD mice treated as shown in (j). Statistical analysis by one-way ANOVA, followed by Tukey post-hoc analysis. (j) EAE clinical scores. Representative data of two independent experiments. Statistical analysis as in (FIG. 1a). (k) Cultured primary astrocytes were pre-treated for 1 h with PDMP (25 μM), LacCer (10 μM), both (LacCer+PDMP), or vehicle control (vehicle), followed by activation with LPS/IFNγ for 45 min, or left un-treated (control, Con). IRF-1 and Lamin B expression in the nuclear fraction analyzed by western blot and the degree of IRF-1 translocation to the nucleus was assessed by the ratio between the expression of IRF-1 and Lamin-B in the nuclear fractions following densitometric quantification on four independent experiments (right panel). Statistical analysis by one-way ANOVA, followed by Tukey post-hoc analysis. (l) ChIP analysis of the interaction of NF-κB, and IRF-1 with the) nos2 promoter in primary cultured astrocytes. Experimental design and data analysis as in (FIG. 4c). Data from two independent experiments (m) qPCR analysis of the expression of nos2, csf2, ccl2, ccl5, il6, and tlr2 in astrocyte cultures established from WT or IRF-1 deficient (IRF-1 KO) mice, pre-treated with LacCer or vehicle, and activated with LPS/IFNγ. […]
FIGS. 14a-g. […] (a) Cultured astrocytes were pre-treated for 1 h with PDMP (25 μM), LacCer (10 μM), both (LacCer+PDMP), or vehicle control (vehicle), followed by activation with LPS/IFNγ for 6 h, or left un-treated (control, Con). mRNA expression was analyzed 6 h following activation. qPCR analysis of the expression of cc/5, csf2, nos2, il6, H2-Aa, and tlr2 presented relative to gapdh. […]

[3] = system: T cells; test: T-cell response in EAE mice (recall proliferation, cytokines, polarization); format: in vivo, mouse; settings: for T-cell response: NOD EAE, daily Miglustat
Description: FIGS. 9a-d. Depletion of reactive astrocytes reduces the recruitment of peripheral leukocytes to the CNS. (a-d). EAE was induced in WT or GFAP^TK F1 hybrid mice and Ganciclovir (GCV) or vehicle control (PBS) was administered as in FIG. 1b. Data are representative of three independent experiments with n≥7 mice/group (means and s.e.m.). (a) Effect of GCV administration on reactive astrocytes detected by GFAP staining (b) Recruitment of monocytes (red gate) and lymphocytes (green gate) to the CNS assessed by FACS. Data are representative of three independent experiments. Statistical analysis by Student's t-test. (c, d) Effect of the depletion of reactive astrocytes during the chronic phase of EAE on the recall proliferative response to MOG(35-55) or anti-CD3 (c) and the expression of IFN-γ, IL-17A, Foxp3 and IL-10 in splenic CD4+ T cells (d). *P<0.05, and (n.s) not significant.
FIGS. 12a-i. […] (a) Naïve C57BL/6 (Left panel) and NOD (right panel) mice were treated with LacCer (10 μg per mouse) or vehicle as indicated by red arrows, and EAE clinical scores was recorded. At experimental end point (day 25), astrocytes were isolated and their transcriptional profile was determined by nCounter Nanostring analysis. (b-e) EAE was induced in C57BL/6 (b, c) or NOD mice (d, e) and LacCer or vehicle were administrated as in FIGS. 1g and 1h, respectively. Splenic T-cell recall response to MOG(35-55) (20 μg/ml); proliferation (b, d) and secretion of IL-17A, IFN-γ and IL-10 cytokines (c, e). Data are representative of two independent experiments with ≥8 mice/group (mean and s.e.m.). (f-i) EAE NOD mice were treated with PDMP or vehicle during the chronic phase as in FIG. 1K. Data are representative of three independent experiments with n≥8 mice/group (mean and s.e.m.). (f) qPCR analysis of the expression of tbx21, ifng, rorc, il17A, csf2, il10, foxp3, and tgfb1 mRNA of CD3^+CD4^+ T-cells isolated from the CNS; expression is presented relative to gapdh. (g, h) Recall response to MOG(35-55) (20 μg/ml); proliferation (g) and secretion of IL-17A, IFN-γ and IL-10 cytokines (h). (i) Expression of IFN-γ, IL-17A, Foxp3 and IL-10 by splenic CD3^+CD4^+ T cells (mean and s.e.m.).
Splenocytes and lymph node cells were cultured in X-VIVO medium and were plated for 72 h at a density of 5×10^5 cells per well in the presence of MOG35-55 peptide. During the final 16 h, cells were pulsed with […] [3H]thymidine (PerkinElmer), followed by collection on glass fiber filters and analysis of incorporated [3H]thymidine in a-counter (1450 MicroBeta TriLux; PerkinElmer). Supernatants were collect after 48 h of culture for cytokine measurement by enzyme-linked immunosorbent assay^14. For intracellular cytokine staining, cells were stimulated for 6 h with PMA (phorbol 12-myristate 13-acetate; 50 ng/ml; Sigma), ionomycin (1 μg/ml; Sigma) and monensin (GolgiStop; […]; BD Biosciences). After staining of surface markers, cells were fixed and made permeable according to the manufacturer's instructions BD Cytofix/Cytoperm™ Kit (BD Biosciences), or Foxp3 Fixation/Permeabilization (Ebiosceince).

[4] = system: EAE NOD mice; test: EAE in NOD mice, progressive phase (clinical score, histopathology, body weight); format: in vivo; settings: NOD EAE; for body weight: daily Miglustat
[5] = system: reactive astrocytes; test: EAE in F1 NOD C57BL/6 GFAP-HSV-TK hybrid mice, depletion of reactive astrocytes; format: in vivo, mouse

Row | Structure (SMILES) | recruitment of inflammatory monocytes to the CNS [1] | astrocyte activation [2] | T-cell response [3] | T-cell response ([3]; listed as miglustat) | body weight [4] | body weight ([4]; listed as miglustat) | clinical course of EAE disease progression ([4]; daily from onset of progressive phase, oral 1800 or 600 mg/kg, or nasal 900 mg/kg twice a day) | EAE scores, astrocyte depletion during the progressive phase ([5]; 25 mg/kg daily s.c. days 30-50) | EAE scores, astrocyte depletion during the acute phase ([5]; 25 mg/kg daily s.c. from 7 days before induction until day 15) | leukocyte infiltration in the CNS ([5]; treatment during progressive phase, FACS) | peripheral T-cell response ([3]; GFAP-TK F1 mice, GCV during progressive phase)
1 | CCCCN1C[C@H](O)[C@@H](O)[C@H](O)[C@H]1CO [Miglustat, N-butyl-deoxynojirimycin] | reduced the recruitment; also recorded: reduces monocytes recruitment | inhibits astrocyte activation | does not affect T-cell polarization | did not affect | does not affect body weight | did not affect | suppressed the clinical course of disease progression; also recorded: halts chronic EAE progression | – | – | – | –
2 | Nc1nc(O)c2ncn(COC(CO)CO)c2n1 [GCV, Ganciclovir] | – | – | – | – | – | – | – | significant amelioration of EAE | significant worsening of EAE | decreased leukocyte infiltration | did not affect
